According to the supplement of paper PMC4862054:

Assays:
Experiment in all cases: normalised viability (% of control), CellTiter-Blue; higher = more viable cells (about 100 = DMSO control)
Settings in all cases: incubation time: 72 h
[1] = system: HDQ-P1
Protocol: (§1)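 DSRT, CellTiter-Blue viability, 72 h incubation. Signal is normalised to DMSO and benzethonium chloride controls. Value is the normalised response at dose 6.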

[2] = system: DU-4475
Protocol: as §1

[3] = system: MDA-MB-453
Protocol: as §1

[4] = system: CAL-85-1
Protocol: as §1

[5] = system: CAL-148
Protocol: as §1

[6] = system: CAL-51
Protocol: as §1

[7] = system: HDQ-P1; remark: listed apart in the source
Protocol: (§2)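 DSRT, CellTiter-Blue viability, 72 h incubation. Signal is normalised to DMSO and benzethonium chloride controls. Value is the normalised response at dose 7.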

[8] = system: DU-4475; remark: listed apart in the source
Protocol: as §2

[9] = system: MDA-MB-453; remark: listed apart in the source
Protocol: as §2

[10] = system: CAL-85-1; remark: listed apart in the source
Protocol: as §2

[11] = system: CAL-148; remark: listed apart in the source
Protocol: as §2

[12] = system: CAL-51; remark: listed apart in the source
Protocol: as §2

[13] = system: HDQ-P1; remark: listed apart in the source
Protocol: (§3)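 DSRT, CellTiter-Blue viability, 72 h incubation. Signal is normalised to DMSO and benzethonium chloride controls. Value is the normalised response at dose 8.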

[14] = system: DU-4475; remark: listed apart in the source
Protocol: as §3

[15] = system: MDA-MB-453; remark: listed apart in the source
Protocol: as §3

[16] = system: CAL-85-1; remark: listed apart in the source
Protocol: as §3

[17] = system: CAL-148; remark: listed apart in the source
Protocol: as §3

[18] = system: CAL-51; remark: listed apart in the source
Protocol: as §3

| Structure (SMILES) | normalised viability [1] [%] | normalised viability [2] [%] | normalised viability [3] [%] | normalised viability [4] [%] | normalised viability [5] [%] | normalised viability [6] [%] | normalised viability [13] [%] | normalised viability [14] [%] | normalised viability [15] [%] | normalised viability [16] [%] | normalised viability [17] [%] | normalised viability [18] [%] | further results |
| --- | --- | --- | --- | --- | --- | --- | --- | --- | --- | --- | --- | --- | --- |
| Nc1nc2[nH]cnc2c(=S)[nH]1 [Thioguanine] (300 nM) | 75.6 | 100 | 107 | 93.3 | 99 | 102 | – | – | – | – | – | – | – |
| C[C@]1(O)C[C@@H](c2nc(-c3ccc4ccc(-c5ccccc5)nc4c3)c3c(N)nccn32)C1 [OSI-906] (1000 nM) | – | – | – | – | – | – | – | – | – | – | – | – | normalised viability [7]: 55.5%; normalised viability [8]: 77.3%; normalised viability [9]: 93.7%; normalised viability [10]: 91.9%; normalised viability [11]: 95%; normalised viability [12]: 86.9% |
| Oc1ncnc2[nH]ncc12 [Allopurinol] (3000 nM) | – | – | – | – | – | – | 94.6 | 113 | 108 | 103 | 108 | 104 | – |
| C[C@]1(O)C[C@@H](c2nc(-c3ccc4ccc(-c5ccccc5)nc4c3)c3c(N)nccn32)C1 [OSI-906] (3000 nM) | – | – | – | – | – | – | 50.5 | 106 | 73.9 | 85.5 | 95.6 | 88.3 | – |
| O=NN(CCCl)C(=O)NCCCl [Carmustine] (3000 nM) | – | – | – | – | – | – | 108 | 90.5 | 118 | 95.7 | 102 | 102 | – |
| C[C@]1(O)C[C@@H](c2nc(-c3ccc4ccc(-c5ccccc5)nc4c3)c3c(N)nccn32)C1 [OSI-906] (300 nM) | 49.8 | 91.5 | 87 | 87.2 | 89.2 | 91.5 | – | – | – | – | – | – | – |
| Cn1cc(C2=Nc3cc(NC(=O)C(N)C4CCCCC4)cc4c3C2=CNNC4=O)cn1 (centres undefined) (300 nM) | 58.7 | 84.3 | 34.9 | 66.1 | 84 | 93.9 | – | – | – | – | – | – | – |
| O=P(O)(O)C(O)(Cn1ccnc1)P(=O)(O)O [Zoledronic acid] (3000 nM) | – | – | – | – | – | – | 89.4 | 121 | 111 | 96.8 | 90.1 | 113 | – |
| CC(=O)c1c(C)c2cnc(Nc3ccc(N4CCNCC4)cn3)nc2n(C2CCCC2)c1=O (3000 nM) | – | – | – | – | – | – | 120 | 102 | 63.6 | 102 | 103 | 69.6 | – |
| CC1(C)CNc2cc(NC(=O)c3cccnc3NCc3ccncc3)ccc21 [Motesanib] (300 nM) | 62.8 | 95.9 | 86.5 | 78.1 | 98.8 | 103 | – | – | – | – | – | – | – |
| COc1cc2c(cc1O)CC[C@@H]1[C@@H]2CC[C@]2(C)[C@@H](O)CC[C@@H]12 [2-methoxyestradiol] (300 nM) | 72.2 | 90.8 | 81.3 | 99 | 97 | 110 | – | – | – | – | – | – | – |
| COc1cc(F)c(F)c(Nc2ccc(I)cc2F)c1NS(=O)(=O)C1(C[C@H](O)CO)CC1 [RDEA119] (300 nM) | 58.7 | 1.76 | 80.8 | 72.8 | 82.6 | 74.9 | – | – | – | – | – | – | – |
| Nc1nc2[nH]cnc2c(=S)[nH]1 [Thioguanine] (3000 nM) | – | – | – | – | – | – | 86.4 | 115 | 110 | 75.7 | 78.4 | 103 | – |
| Cc1sc2c(c1C)C(c1ccc(Cl)cc1)=N[C@@H](CC(=O)OC(C)(C)C)c1nnc(C)n1-2 [(+)JQ1] (3000 nM) | – | – | – | – | – | – | 94.8 | 0.9 | 23.3 | 40.5 | 36.9 | 74.3 | – |
| Oc1ncnc2[nH]ncc12 [Allopurinol] (300 nM) | 73.6 | 91.6 | 101 | 104 | 113 | 93.3 | – | – | – | – | – | – | – |
| CC(C)(C)c1cnc(CSc2cnc(NC(=O)C3CCNCC3)s2)o1 [SNS-032] (3000 nM) | – | – | – | – | – | – | 14.4 | 4.8 | 15.8 | 3.68 | 18.8 | 8.52 | – |
| C[C@]12CC[C@@H]3c4ccc(OC(=O)N(CCCl)CCCl)cc4CC[C@H]3[C@@H]1CC[C@@H]2O [Estramustine] (297 nM) | – | – | – | – | – | – | 93.6 | 118 | 101 | 86.5 | 97.5 | 92.5 | – |
| CC(C)(C)c1cnc(CSc2cnc(NC(=O)C3CCNCC3)s2)o1 [SNS-032] (300 nM) | 10.2 | 27.9 | 18.9 | 9.41 | 7.44 | 74 | – | – | – | – | – | – | – |
| COc1cc2c(cc1O)CC[C@@H]1[C@@H]2CC[C@]2(C)[C@@H](O)CC[C@@H]12 [2-methoxyestradiol] (3000 nM) | – | – | – | – | – | – | 56.7 | 36.1 | 34.4 | 41.2 | 29.6 | 42.2 | – |
